According to patent US20240226072A1 (Stichting Het Nederlands Kanker Instituut, priority 2022, published 2024):

Experiments:
in vivo = settings: male, mouse, po, 10 mg/kg; for AUC(0-t): AUC0-24 h
Method: The Jevtana (10 mg/mL) solution contains 0.26 mg/mL polysorbate 80 and 15% (w/v) ethanol, and is adjusted to pH 2-6 with citric acid. […] The stock solution was further diluted 5-fold with water to reach a 2.5 mg/mL dosing solution for oral administration. The vehicle solution only consists of polysorbate 80, ethanol and water (1:1:8, v/v/v). […] All dosing solutions were prepared freshly on the day of the experiment.
At the termination time point of 24 hours, mice were anesthetized using an isoflurane evaporator with 3% isoflurane with 0.8 L/min air and 0.3 L/min oxygen. A final blood sample was taken using cardiac puncture, using Eppendorf tubes previously prepared with heparin as an anticoagulant. Subsequently, the anesthetized mice were sacrificed by cervical dislocation and the tissues of interest were collected. Brain, liver, spleen, kidney, small intestine, and testis were collected. The small intestinal content (SIC) was separately collected by removing this from the small intestinal tissue, which was subsequently rinsed with saline to remove possibly fecal residue. The blood samples were centrifuged at 9,000×g for 6 minutes at 4° C., and the plasma fraction was isolated and stored at −30° C. until analysis. Brain, liver, spleen, kidney, small intestinal tissue, SIC, and testis were homogenized in a FastPrep-24™ 5G homogenizer (M. P. Biomedicals, Santa Ana, CA, USA) for 1 min with 1, 3, 1, 2, 3, 2, and 1 mL of 2% (w/v) BSA in Milli-Q water, respectively. Until analysis of the samples, they were all stored at −30° C.
Pharmacokinetic parameters were estimated by non-compartmental analysis using the software package of PK solutions 2.0.2 (SUMMIT, Research Service). The area under the curve (AUC) of the plasma-concentration time curve for all the compounds was calculated using the linear trapezoidal rule without extrapolating to infinity. The peak plasma concentration (Cmax) and the time to reach peak plasma concentration (Tmax) were obtained directly from the individual raw data. For the statistical analysis and the graphs GraphPad Prism 9 (GraphPad Software Inc., La Jolla, CA, USA) was used. The statistics for the comparison of multiple groups were calculated with the one-way analysis of variance (ANOVA), whereas Sidak's post hoc correction was performed. Log-transformation before statistical analysis was applied, when variances within the groups were not homogeneously distributed. Differences were considered statistically significant when P<0.05. All data are presented as geometric mean±SD.

[1] = chemically castrated men compared to non-castrated patients; cited from earlier work
[2] = Plasma pharmacokinetics and tissue distribution 2 h after oral cabazitaxel 10 mg/kg with vehicle or 25 mg/kg ritonavir in wild-type, Oatp1a/1b−/−, Oatp1a/1b/2b1−/−, OATP1B1- and OATP1B3-transgenic mice; format: in vivo; settings: for reduction of SIC recovered percentage of dose corrected for the plasma AUC: vehicle + oral cabazitaxel 10 mg/kg, 2 h; for Cmax / Tmax / AUC(0-t): male, FVB, mouse, plasma, po, 10 mg/kg, vehicle pretreatment, oral 10 mg/kg cabazitaxel; for AUC(0-t): 0-2 h, read-out: AUC0-2 h
Method: All animals were fasted 2 to 3 hours prior to the start of the experiment to minimize variation in absorption after oral administration. […] Subsequently, cardiac puncture was performed with a heparinized needle and syringe collecting a final blood sample. […] All samples were stored at −30° C. until analysis.
Differences were considered statistically significant when P<0.05. All data are presented as geometric mean±SD.

[3] = Oatp1a/b−/− compared to wild-type mice after intravenous administration; Iusuf et al.; cited from earlier work
[4] = Cyp3aXAV (human CYP3A in Cyp3a−/−, FVB background)

Compound: CC(=O)O[C@@]12CO[C@@H]1C[C@H](O)[C@@]1(C)C(=O)[C@H](O)C3=C(C)[C@@H](OC(=O)[C@H](O)[C@@H](NC(=O)OC(C)(C)C)c4ccccc4)C[C@@](O)([C@@H](OC(=O)c4ccccc4)[C@H]21)C3(C)C [docetaxel]
- AUC0-24 h (in vivo; [4]): 0.271 µM·h
- AUC(0-t) (in vivo; [4]): 0.285 µM·h
- AUC(0-t) (in vivo; FVB, Cyp3aXAV): 0.681 µM·h
- AUC(0-t) (in vivo; FVB, wild-type): 0.707 µM·h
- Cmax (in vivo; FVB, wild-type, Cmax): 119 nM
- reduction of plasma AUC [1]: 2 fold
- reduction of SIC recovered percentage of dose corrected for the plasma AUC ([2]; Oatp1a/1b/2b1−/− compared to wild-type mice): 2.9 fold
- reduction of SIC recovered percentage of dose corrected for the plasma AUC ([2]; Oatp1a/1b−/− compared to wild-type mice): 4.0 fold
- Cmax ([2]; OATP1B1-transgenic mice): 206 ± 105 nM
- Tmax ([2]; OATP1B1-transgenic mice): 35 min
- AUC(0-t) ([2]; OATP1B1-transgenic mice): 0.271 ± 0.144 µM·h
- Cmax ([2]; OATP1B3-transgenic mice): 248 ± 145 nM
- Tmax ([2]; OATP1B3-transgenic mice): 45 min
- AUC(0-t) ([2]; OATP1B3-transgenic mice): 0.305 ± 0.177 µM·h
- Cmax ([2]; Oatp1a/1b/2b1−/− mice): 202 ± 65 nM
- Tmax ([2]; Oatp1a/1b/2b1−/− mice): 35 min
- AUC(0-t) ([2]; Oatp1a/1b/2b1−/− mice): 0.252 ± 0.069 µM·h
- Cmax ([2]; Oatp1a/1b−/− mice): 191 ± 43 nM
- Tmax ([2]; Oatp1a/1b−/− mice): 35 min
- AUC(0-t) ([2]; Oatp1a/1b−/− mice): 0.216 ± 0.047 µM·h
- Cmax ([2]; wild-type mice): 84 ± 30 nM
- Tmax ([2]; wild-type mice): 25 min
- AUC(0-t) ([2]; wild-type mice): 0.091 ± 0.043 µM·h
- increase in plasma AUC [3]: 3 fold
